US4269820A, “Safeguarded toxic chemical compositions containing effective emesis-inducing S-triazolo-[1,5-α]pyrimidine derivatives” (priority 1977, dated 1981)

Tests used:
[1] = Time to emesis and survival after oral administration of pesticide with or without emetic (Example 27, Table 1); format: in vivo, Macaca fascicularis (Cynomolgus monkeys); conditions: for Animals in which emesis took place / Survival number after 14 days: 2 animals
in vivo = conditions: cynomolgus monkey, po
[2] = cited from earlier work
[3] = in vivo; cited from earlier work

Structure (SMILES)	Time to emesis ([1]; Parathion only, 200 mg/kg)	Animals in which emesis took place ([1]; Parathion only, 200 mg/kg)	Survival number after 14 days ([1]; Parathion only, 200 mg/kg)	LD50 (in vivo)	Stability in air [2]	Side effects of known emetic [3]	Animals in which emesis took place ([1]; Malathion only, 500 mg/kg)	Survival number after 14 days ([1]; Malathion only, 500 mg/kg)
CCOP(=S)(OCC)Oc1ccc([N+](=O)[O-])cc1 [Parathion, diethyl 4-nitrophenyl phosphorothionate]	1 h	1	0	~100 mg/kg				
CN1CCc2cccc3c2[C@H]1Cc1ccc(O)c(O)c1-3 [apomorphine]					unstable in air, oxidising readily	may induce protracted vomiting and shock		
CCOC(=O)CC(SP(=S)(OC)OC)C(=O)OCC (stereo not drawn) [Malathion, S-[1,2-di(ethoxycarbonyl)ethyl] dimethyl phosphorothiolothionate]				270 to 400 mg/kg			1	0
